The test system of one data set is BLT2 mRNA. In words: BLT2 mRNA in Rat2-BLT2 stable cells (RT-PCR). To be noted: transient transfection, 24 h. The format is cell-based. As for the experimental part:
Suppressed BLT2 expression level was determined by RT-PCR. Rat2-BI_T2 stable cells were plated at a density of 5×10^4 cells/plate on 6 well plates. After 24 hr, cells were transiently transfected with BLT2 specific antisense and sense oligonucleotide plasmid with Lipofectamin reagent and then incubated in fresh DMEM supplemented with 10% FBS for an additional 24 h. After additional incubation, the transfected cells were harvested for BLT2 transcripts analysis. Total RNA was reverse-transcribed and PCR amplify were performed with BLT2 forward primer: 5′-[…]-3′ (SEQ ID NO: 23) and reverse primer: 5′-[…]-3′ (SEQ ID NO: 24). Non-transfected Rat2-BLT2 stable cells cDNA was used the negative control and GAPDH was shown as internal control.

In another data set the test system is Rac. In words: Endogenous Rac expression in lung tissue (Western blot). The format is in vivo, mouse. The conditions noted are these: oligonucleotides injected into tail veins, mice sacrificed after 12 hr. From the text: FIGS. 10a and 10b show activation of Rac in the lung tissue by OVA provocation and inhibition of endogenous Rac expression by antisense Rac oligonucleotide treatment. Lung samples were homogenized with micropestle and washed with PBS twice. FIG. 10a depicts Western blot analysis of Rac expression in mouse model of asthma. For membrane protein preparation, cells were suspended in Buffer A and cells were ruptured by passing through 21-G syringe. After ultracentrifugation, protein samples in pelleted membrane fraction were dissolved with buffer A containing 1% Triton X-100. FIG. 10b depicts Western blot analysis of Rac expression in mouse model of asthma administered with asRac. For whole cell lysate preparation, cells from the lung tissues of buffer, control Rac oligonucleotide or antisense Rac oligonucleotide injected mice were suspended with lysis buffer and incubated for 20 min. After centrifugation of the samples, protein quantification was carried out using Bradford reagent and Western blot analysis was performed.
Oligonucleotides, from Genotech Co. (Korea), were synthesized with a phosphorothioate backbone to improve the resistance to endonuclease. The antisense oligonucleotide consisted of 17 nucleotides analogues to the 5′ end of the murine Rac mRNA sequence, which spans the translation initiation site. […]

The next data set concerns OVA-challenged mice. In words: Eosinophil infiltration in BAL fluid of OVA-challenged mice. The format is in vivo, mouse. To be noted: C57BL/6 mice, 1.6 mg/kg i.v. 24 hr and 1 hr before 10% OVA challenge, 48 hr. As to the method:
(§1) Female BALB/c mice and C57BL/6 mice (7 weeks old; 18-20 g) were obtained from Orientbion Inc. (Seoungnam, Korea). Sensitization and challenge were carried out as described previously with some modification (28). Briefly, female C57BL/6 mice (7 weeks old; 18-20 g) were immunized by intraperitoneal (i.p.) injection of 200 μg ovalbumin (OVA) emulsified in 2.5 mg of adjuvant aluminum hydroperoxide gel (alum) (Pierce, Rockford, Ill.). A second i.p. injection of 20 μg OVA adsorbed onto alum (2.5 mg) was administered 10 days later. After an additional 10 days, mice were exposed to an aerosol of 1% OVA in saline for 30 min daily on 3 consecutive days. On day 25, mice were finally challenged by provocation with 10% OVA aerosol. For inhibition experiments, sense or antisense BLT2 (1.6 mg/kg) was injected intravenously 24 h and then 1 h before the 10% OVA challenge. The mice were then killed on day 27 to assess asthmatic phenotypes. Antisense BLT2 oligonucleotide (5′-[…]-3′ (SEQ ID NO: 15)), sense BLT2 oligonucleotide (5′-[…]-3′ (SEQ ID NO: 16)).
Inflammatory cells in the BAL fluid were collected by centrifugation (1,000 g for 3 min) and washed once in PBS. Cells were counted using a hemocytometer, and viability was assessed by trypan blue exclusion. […]

The subject of a further data set is ROS. Briefly: ROS levels in BAL fluid cells (DCF fluorescence, FACS). The conditions noted are these: 1.6 mg/kg i.v. 24 hr and 1 hr before 10% OVA; BAL fluid 48 h after challenge. The format is in vivo, mouse. As to the method: as §1
ROS levels in BAL fluids were measured as a function of DCF fluorescence as described previously (30). […] DCF fluorescence was excited at 488 nm and the evoked emission was filtered with a 515-nm long-pass filter. […]

Consider “BLT2 antisense oligonucleotide: BLT2 specific antisense oligonucleotide plasmid transfected into Rat2-BLT2 stable cells (antisense CAGCAGTGTCTCGTT; listed as DNA, chemistry not given here)”, for which the “level of BLT2 mRNA by RT-PCR” value with BLT2 mRNA is “reduced”.

In the case of “control Rac: control oligonucleotide of same nucleotide composition, 5′-GATCAGTGCACACAGTG-3′ (SEQ ID NO: 21) (listed as DNA, chemistry not given here) [reference compound]”, the “endogenous expression of Rac in the lung tissues” value in the data set with Rac was “didn't show significant effect”.

Take “sense BLT2: sense BLT2 oligonucleotide 5′-GGAATGAGACACTACTGAGC-3′ (SEQ ID NO: 16) (listed as DNA, chemistry not given here) [reference compound]”: the “effect on eosinophil infiltration in BAL fluids (in words)” value with OVA-challenged mice is reported as “no inhibitory effect”. The “effect on ROS levels in BAL fluid (in words)” value in the data set with ROS is “not”.

Source of the values: US9255272B2, “Use of inhibitors of leukotriene B4 receptor BLT2 for treating asthma” (Korea University Research & Business Foundation, priority 2007, dated 2016).
